Calls of active or inactive are those of the source.
Experiments:
[1] = tested on: Streptococcus; test: Group A Streptococcus viability loss, dose response, counter-screen for streptokinase expression inhibitor project, luminescence, BacTiterGlo (AID 1915); format: functional, organism-based;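 further: potency for reduction of bacterial viability or growth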
[2] = molecular target: T1, RNA-binding protein pos-1 (Caenorhabditis elegans, UniProt G5EF15); test: inhibitors of POS-1/mex-3 RNA binding, dose response, biochemical, fluorescence polarization (AID 1964);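 further: purified POS-1 fused to maltose binding protein made in E. coli; potency of compounds blocking POS-1 binding to fluorescent RNA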
T1 sequence (G5EF15 whole entry): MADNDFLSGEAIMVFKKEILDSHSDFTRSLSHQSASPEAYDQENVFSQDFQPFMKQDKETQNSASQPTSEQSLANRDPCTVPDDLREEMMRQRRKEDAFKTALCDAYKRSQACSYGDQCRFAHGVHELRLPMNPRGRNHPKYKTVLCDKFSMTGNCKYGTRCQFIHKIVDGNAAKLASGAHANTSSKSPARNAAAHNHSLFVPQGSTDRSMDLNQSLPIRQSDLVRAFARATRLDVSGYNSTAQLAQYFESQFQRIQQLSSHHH

[3] = molecular target: T2, Zinc finger protein mex-5 (Caenorhabditis elegans, UniProt Q9XUB2); test: MEX-5/TCR-2 RNA interaction inhibitors, dose response, biochemical, C. elegans, fluorescence polarization (AID 1960)
T2 sequence (Q9XUB2 whole entry): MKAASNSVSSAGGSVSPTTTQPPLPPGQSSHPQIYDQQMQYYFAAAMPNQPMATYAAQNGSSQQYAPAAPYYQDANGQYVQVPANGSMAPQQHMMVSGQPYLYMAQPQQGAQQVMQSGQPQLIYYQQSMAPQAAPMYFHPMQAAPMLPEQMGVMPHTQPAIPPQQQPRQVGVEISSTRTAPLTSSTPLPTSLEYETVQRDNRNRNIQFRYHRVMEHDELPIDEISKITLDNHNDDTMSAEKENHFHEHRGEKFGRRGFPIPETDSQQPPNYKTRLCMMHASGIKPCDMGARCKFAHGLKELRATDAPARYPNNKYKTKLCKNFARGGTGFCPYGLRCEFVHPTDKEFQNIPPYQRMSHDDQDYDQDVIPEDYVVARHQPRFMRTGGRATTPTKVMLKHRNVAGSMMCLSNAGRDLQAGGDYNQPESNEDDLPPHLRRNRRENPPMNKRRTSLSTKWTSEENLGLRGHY

[4] = tested on: Streptococcus sp. 'group A'; test: growth inhibition of control SK(-) GAS strain, dose response, counter-screen for streptokinase expression inhibitor project, luminescence, kanamycin, BacTiterGlo, confirmation (AID 1900); format: functional, organism-based
[5] = Escherichia coli growth inhibition, dose response, counter-screen for MEX-5/POS-1 RNA-binding inhibitor project, luminescence, NEB5alpha (AID 1959); format: functional
[6] = molecular target: T3, Streptokinase A (Streptococcus pyogenes serotype M1, UniProt P10520); test: S. pyogenes streptokinase expression inhibitors, potency, dose response, plasminogen activation absorbance, OD405 (AID 1914); format: functional, Streptococcus pyogenes M1 GAS;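 further: secreted streptokinase activity via plasminogen activation per viability signal from cell pellet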
T3 sequence (P10520 whole entry): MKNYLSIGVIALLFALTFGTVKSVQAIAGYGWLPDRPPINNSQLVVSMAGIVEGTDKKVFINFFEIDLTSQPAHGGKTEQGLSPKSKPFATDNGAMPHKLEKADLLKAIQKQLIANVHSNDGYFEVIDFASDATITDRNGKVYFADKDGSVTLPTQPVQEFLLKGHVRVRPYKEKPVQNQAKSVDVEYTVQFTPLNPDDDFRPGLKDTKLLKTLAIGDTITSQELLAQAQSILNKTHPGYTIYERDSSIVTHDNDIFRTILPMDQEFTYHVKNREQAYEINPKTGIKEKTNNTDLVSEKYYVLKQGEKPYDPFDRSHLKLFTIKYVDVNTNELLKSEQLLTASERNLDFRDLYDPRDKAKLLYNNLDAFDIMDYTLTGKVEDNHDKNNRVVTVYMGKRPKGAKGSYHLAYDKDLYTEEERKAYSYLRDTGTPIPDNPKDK

[7] = molecular target: T4, Bcl-2-related protein A1 (Mus musculus, UniProt Q07440); test: Bfl-1 binding inhibitors, SAR follow-up, biochemical, fluorescence polarization (AID 1070)
T4 sequence (Q07440 whole entry): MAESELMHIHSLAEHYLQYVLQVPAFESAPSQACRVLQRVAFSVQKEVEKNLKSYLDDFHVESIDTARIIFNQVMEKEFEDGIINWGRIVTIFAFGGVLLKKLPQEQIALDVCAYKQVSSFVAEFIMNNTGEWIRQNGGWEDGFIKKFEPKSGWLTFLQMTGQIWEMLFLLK

[8] = molecular target: T4, Bcl-2-related protein A1; test: Bfl-1 inhibitors blocking BH3 peptide binding, confirmation, biochemical, TR-FRET, mouse Bfl-1 (AID 621);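 further: TR-FRET binding of GST-Bfl-1 to FITC-labelled Bid peptide via terbium antibody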
[9] = molecular target: T5, Estrogen receptor (Homo sapiens, UniProt P03372);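 further: potency for inhibiting coactivator peptide recruitment to the receptor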
T5 sequence (P03372 whole entry): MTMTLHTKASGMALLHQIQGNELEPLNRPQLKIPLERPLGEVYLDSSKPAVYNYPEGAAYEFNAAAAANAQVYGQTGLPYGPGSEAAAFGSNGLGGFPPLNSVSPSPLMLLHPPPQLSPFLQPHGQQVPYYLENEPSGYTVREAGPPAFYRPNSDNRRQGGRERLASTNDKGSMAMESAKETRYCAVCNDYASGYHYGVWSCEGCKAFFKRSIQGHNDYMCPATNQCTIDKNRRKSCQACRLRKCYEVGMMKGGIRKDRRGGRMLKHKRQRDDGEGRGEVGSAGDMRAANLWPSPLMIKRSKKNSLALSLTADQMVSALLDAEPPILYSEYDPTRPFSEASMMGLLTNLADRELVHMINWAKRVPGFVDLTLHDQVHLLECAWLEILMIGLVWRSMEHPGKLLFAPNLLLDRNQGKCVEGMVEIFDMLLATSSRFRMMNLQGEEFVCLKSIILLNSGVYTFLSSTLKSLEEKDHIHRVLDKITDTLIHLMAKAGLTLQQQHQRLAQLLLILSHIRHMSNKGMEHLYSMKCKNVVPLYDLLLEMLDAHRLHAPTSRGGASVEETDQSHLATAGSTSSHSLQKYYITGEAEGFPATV

[10] = molecular target: T6, Voltage-gated N-type calcium channel alpha-1B subunit/Amyloid beta A4 precursor protein-binding family A member 1 (Homo sapiens, UniProt Q00975+Q02410); format: protein assay
T6 sequence (Q00975 whole entry): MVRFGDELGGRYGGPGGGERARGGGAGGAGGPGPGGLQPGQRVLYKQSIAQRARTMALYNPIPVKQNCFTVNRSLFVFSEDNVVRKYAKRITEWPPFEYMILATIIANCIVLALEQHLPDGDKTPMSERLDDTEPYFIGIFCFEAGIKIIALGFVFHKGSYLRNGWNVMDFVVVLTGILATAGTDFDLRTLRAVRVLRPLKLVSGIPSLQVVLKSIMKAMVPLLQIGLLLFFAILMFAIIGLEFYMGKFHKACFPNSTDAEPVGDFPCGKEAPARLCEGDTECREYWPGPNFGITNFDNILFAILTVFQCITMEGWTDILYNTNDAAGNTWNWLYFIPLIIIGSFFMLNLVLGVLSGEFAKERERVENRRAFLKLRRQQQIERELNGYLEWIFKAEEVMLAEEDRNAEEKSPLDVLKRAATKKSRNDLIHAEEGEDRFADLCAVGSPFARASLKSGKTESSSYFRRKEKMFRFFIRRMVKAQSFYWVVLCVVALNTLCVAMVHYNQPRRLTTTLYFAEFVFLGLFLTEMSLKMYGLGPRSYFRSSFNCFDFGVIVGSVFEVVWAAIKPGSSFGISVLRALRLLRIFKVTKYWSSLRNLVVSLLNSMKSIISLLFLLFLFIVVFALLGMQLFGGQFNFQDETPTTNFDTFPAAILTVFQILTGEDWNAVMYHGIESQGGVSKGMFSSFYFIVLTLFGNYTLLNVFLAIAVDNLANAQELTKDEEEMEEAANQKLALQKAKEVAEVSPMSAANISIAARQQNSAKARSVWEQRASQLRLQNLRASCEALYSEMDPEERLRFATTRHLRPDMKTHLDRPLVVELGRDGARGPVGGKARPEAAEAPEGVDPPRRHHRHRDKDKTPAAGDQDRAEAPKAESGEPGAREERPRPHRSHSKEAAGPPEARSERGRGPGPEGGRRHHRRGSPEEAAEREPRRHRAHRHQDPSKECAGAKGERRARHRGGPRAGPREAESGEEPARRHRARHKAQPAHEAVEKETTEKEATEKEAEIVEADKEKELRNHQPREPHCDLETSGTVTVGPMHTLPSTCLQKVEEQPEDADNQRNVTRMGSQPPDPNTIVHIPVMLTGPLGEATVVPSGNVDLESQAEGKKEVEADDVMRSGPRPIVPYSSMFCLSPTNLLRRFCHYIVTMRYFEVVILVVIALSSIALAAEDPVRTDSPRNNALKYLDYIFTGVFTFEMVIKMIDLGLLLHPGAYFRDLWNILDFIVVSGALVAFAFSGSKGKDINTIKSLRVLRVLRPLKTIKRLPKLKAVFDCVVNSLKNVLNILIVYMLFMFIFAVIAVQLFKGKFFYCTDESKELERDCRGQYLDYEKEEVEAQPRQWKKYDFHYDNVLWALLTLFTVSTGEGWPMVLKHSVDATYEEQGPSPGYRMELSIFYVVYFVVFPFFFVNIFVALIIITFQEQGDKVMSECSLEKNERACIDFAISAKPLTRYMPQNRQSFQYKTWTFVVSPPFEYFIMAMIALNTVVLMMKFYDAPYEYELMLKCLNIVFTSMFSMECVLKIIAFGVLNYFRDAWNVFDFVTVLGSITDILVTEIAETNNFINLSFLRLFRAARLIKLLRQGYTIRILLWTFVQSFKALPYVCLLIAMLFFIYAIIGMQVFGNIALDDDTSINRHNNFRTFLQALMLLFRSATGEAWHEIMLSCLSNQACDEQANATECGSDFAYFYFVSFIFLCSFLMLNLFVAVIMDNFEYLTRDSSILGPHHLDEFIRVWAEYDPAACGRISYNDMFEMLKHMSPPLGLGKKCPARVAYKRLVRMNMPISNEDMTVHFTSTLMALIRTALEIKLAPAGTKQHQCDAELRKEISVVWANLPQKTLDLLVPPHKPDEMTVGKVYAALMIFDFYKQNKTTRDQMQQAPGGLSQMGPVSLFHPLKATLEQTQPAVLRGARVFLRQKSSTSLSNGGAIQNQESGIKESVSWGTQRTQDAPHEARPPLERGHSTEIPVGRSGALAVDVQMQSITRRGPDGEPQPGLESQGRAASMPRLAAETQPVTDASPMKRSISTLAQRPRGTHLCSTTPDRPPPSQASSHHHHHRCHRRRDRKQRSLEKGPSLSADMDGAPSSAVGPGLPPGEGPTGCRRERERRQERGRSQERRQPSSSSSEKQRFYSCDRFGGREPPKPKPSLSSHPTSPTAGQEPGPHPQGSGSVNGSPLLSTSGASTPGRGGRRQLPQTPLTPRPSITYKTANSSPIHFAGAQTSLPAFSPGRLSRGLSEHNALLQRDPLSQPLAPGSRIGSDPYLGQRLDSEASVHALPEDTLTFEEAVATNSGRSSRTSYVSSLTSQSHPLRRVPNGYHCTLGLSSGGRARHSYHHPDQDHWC
T6 sequence (Q02410 whole entry): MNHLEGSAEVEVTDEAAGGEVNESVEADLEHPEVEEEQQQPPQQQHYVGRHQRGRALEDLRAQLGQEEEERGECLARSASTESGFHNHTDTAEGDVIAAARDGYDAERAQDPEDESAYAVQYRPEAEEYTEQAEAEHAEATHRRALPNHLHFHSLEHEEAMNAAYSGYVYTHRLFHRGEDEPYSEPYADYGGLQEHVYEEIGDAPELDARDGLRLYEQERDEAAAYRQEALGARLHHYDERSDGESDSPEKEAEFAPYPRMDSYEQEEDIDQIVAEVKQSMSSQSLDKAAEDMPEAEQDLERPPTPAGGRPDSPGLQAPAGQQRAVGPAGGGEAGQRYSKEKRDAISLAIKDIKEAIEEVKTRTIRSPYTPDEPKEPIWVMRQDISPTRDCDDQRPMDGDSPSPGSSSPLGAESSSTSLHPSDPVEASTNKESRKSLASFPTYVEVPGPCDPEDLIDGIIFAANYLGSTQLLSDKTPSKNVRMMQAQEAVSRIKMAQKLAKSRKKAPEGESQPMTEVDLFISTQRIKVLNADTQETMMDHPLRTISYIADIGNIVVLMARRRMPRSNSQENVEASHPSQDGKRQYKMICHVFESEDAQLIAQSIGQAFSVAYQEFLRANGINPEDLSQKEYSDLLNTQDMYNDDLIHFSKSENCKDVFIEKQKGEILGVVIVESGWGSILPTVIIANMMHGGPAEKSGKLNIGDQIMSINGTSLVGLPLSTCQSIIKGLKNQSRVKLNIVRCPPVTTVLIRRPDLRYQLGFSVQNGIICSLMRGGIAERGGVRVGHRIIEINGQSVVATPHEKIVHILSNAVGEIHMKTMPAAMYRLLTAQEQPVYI

[11] = molecular target: Induced myeloid leukemia cell differentiation protein Mcl-1 (Homo sapiens, UniProt Q07820); test: MCL1-BIM BH3 interaction inhibitors, dose response, biochemical, fluorescence polarization, BIM-BH3 peptide, 1536-well (AID 2217)
Chain of Induced myeloid leukemia cell differentiation protein Mcl-1 (Q07820 whole entry): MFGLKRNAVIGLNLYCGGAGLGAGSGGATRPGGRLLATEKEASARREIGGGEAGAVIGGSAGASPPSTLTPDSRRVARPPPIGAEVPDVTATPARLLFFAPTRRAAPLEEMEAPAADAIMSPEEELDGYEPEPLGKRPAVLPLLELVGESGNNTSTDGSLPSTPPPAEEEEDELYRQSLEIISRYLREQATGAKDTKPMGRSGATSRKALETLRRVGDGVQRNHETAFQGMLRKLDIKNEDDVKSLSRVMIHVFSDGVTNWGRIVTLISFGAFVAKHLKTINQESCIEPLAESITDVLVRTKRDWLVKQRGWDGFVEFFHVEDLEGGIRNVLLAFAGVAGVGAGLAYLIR

[12] = molecular target: Estrogen receptor beta (Homo sapiens, UniProt Q92731);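 further: recombinant ER-beta bound to coactivator SRC1 peptide in presence of estradiol agonist; inhibitors block coactivator peptide binding and lower the FRET signal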
[13] = molecular target: Large T antigen (Simian virus 40, UniProt P03070); format: functional, Betapolyomavirus macacae;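 further: Confirmatory-stage PubChem screen for compounds that inhibit SV40 T antigen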
Chain of Large T antigen (P03070 whole entry): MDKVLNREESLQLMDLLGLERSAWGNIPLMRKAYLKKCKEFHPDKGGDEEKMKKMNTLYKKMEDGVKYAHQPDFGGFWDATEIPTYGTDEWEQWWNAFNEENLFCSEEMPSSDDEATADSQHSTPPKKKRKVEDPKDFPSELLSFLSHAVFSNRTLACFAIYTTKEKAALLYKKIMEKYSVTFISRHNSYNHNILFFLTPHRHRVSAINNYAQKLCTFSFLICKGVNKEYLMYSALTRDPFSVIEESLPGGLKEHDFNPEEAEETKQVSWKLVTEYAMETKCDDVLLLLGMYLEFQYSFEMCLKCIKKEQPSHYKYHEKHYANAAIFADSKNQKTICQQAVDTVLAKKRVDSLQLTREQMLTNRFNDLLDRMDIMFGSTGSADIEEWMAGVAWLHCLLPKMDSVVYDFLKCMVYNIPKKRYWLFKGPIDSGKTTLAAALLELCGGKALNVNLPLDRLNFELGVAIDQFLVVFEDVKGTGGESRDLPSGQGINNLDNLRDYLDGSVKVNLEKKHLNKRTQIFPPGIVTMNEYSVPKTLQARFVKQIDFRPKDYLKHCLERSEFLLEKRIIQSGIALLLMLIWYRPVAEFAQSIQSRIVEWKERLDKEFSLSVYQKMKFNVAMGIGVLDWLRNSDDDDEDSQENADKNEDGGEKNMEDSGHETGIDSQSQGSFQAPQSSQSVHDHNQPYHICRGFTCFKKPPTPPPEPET

[14] = molecular target: T6, Voltage-gated N-type calcium channel alpha-1B subunit/Amyloid beta A4 precursor protein-binding family A member 1; format: protein assay; remark: listed apart in the source
[15] = molecular target: Bcl-2-like protein 1 (Homo sapiens, UniProt Q07817); test: BCL-XL inhibitors, dose response, selectivity assay for MCL1 inhibitor project, biochemical, fluorescence polarization, 1536-well (AID 2218)
Chain of Bcl-2-like protein 1 (Q07817 whole entry): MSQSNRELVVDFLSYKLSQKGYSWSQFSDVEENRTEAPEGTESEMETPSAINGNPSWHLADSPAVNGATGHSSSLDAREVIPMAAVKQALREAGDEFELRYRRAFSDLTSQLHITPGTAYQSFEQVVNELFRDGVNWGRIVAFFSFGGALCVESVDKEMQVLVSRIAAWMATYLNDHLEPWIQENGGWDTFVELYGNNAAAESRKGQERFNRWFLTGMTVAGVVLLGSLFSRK

[16] = molecular target: T7, Microphthalmia-associated transcription factor (Homo sapiens, UniProt O75030); test: TRPM1 promoter luciferase signal decrease, dose response, MITF inhibitor project, cell-based, SK-MEL-5, cherry-picked, set 3 (AID 493073); format: functional
T7 sequence (O75030 whole entry): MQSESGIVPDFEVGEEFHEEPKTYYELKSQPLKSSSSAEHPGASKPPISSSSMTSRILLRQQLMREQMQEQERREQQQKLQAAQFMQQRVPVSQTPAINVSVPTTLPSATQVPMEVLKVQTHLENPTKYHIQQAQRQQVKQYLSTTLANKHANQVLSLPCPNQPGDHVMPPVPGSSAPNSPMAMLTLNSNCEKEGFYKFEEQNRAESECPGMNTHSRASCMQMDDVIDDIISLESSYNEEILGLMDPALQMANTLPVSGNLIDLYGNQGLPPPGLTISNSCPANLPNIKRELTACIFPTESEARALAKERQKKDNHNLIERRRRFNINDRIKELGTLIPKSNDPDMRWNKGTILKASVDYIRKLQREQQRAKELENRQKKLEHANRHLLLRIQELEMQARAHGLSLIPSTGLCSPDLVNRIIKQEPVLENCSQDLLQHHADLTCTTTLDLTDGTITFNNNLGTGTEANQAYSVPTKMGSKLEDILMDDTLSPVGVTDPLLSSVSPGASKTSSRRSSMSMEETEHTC

[17] = molecular target: Protein-tyrosine kinase 2-beta (Homo sapiens, UniProt Q14289);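 further: potency of inhibitors of PYK2 kinase phosphorylation of poly-GT substrate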

In the case of Cc1ccc(C(=O)C2=C(O)C(=O)N(Cc3ccco3)C2c2cccc(Br)c2)o1 (stereo not given), the EC50 [1] is reported as 11.2 µM (active), the EC50 [2] is reported as > 300 µM (not active) and the EC50 [3] is reported as 35.6 µM (active). The EC50 [4] was 6.16 µM (active), the EC50 [5] was 18.3 µM (inconclusive) and the EC50 [6] was > 150 µM (not active).
In the case of Clc1ccc(-n2nnc(-c3cc4ccccc4nc3Cl)n2)cn1, the IC50 [7] is reported as > 100 µM (not active) and the IC50 [8] is reported as > 100 µM (not active).
For CCOc1ccc(N2CSC3=C(C#N)C(c4ccco4)CC(=O)N3C2)cc1 (stereo not given), the IC50 [9] was > 50 µM (not active), the IC50 [10] was 9.68 µM (active) and the IC50 [11] was > 109 µM (not active). For the same compound, the IC50 [12] was > 50 µM (not active), the IC50 [13] was 13.8 µM (active) and the IC50 [14] was 21.6 µM (active). For the same compound, the IC50 [15] was > 109 µM (not active).
In the case of CCOc1cc(/C=C2/NC(=S)NC2=O)ccc1OCc1ccc([N+](=O)[O-])cc1, the EC50 [1] is reported as > 150 µM (not active), the EC50 [4] is reported as 3.85 µM (active) and the EC50 [6] is reported as 8.31 µM (active). The AC50 [16] was 8.19 µM (active) and the IC50 [17] was 3.76 µM (active).

— ChEMBL document CHEMBL1201862, “PubChem BioAssay data set” (2004)
